This note sets out measurements from patent US20260242452A1, “METHOD FOR DEGRADING TARGET PROTEIN” (Inter-University Research Institute Corporation Research …, priority 2023, published 2026).

Each structure is given as a SMILES string.

Common to all, as to type: cell-based, human
Assay [1] deals with endogenous RAS. The assay is described as follows: Expression level of endogenous RAS by Western blotting. The conditions noted are these: 1 μM 5-Ph-IAA, 6 hours; cells expressing OsTIR1 (F74G) and RAS nanobody hybrid adapter. How it is done:
Furthermore, the same experiment was performed using an adapter (KR adapter; hybrid adapter) containing a gene encoding a RAS nanobody (gene sequence of RAS nanobody WT (SEQ ID NO: 14), amino acid sequence of RAS nanobody WT (SEQ ID NO: 15); gene sequence of RAS nanobody KR (SEQ ID NO: 16), amino acid sequence of RAS nanobody KR (SEQ ID NO: 17)) (see the left part of FIG. 11). The cells were treated with 1 μM 5-Ph-IAA for 6 hours, and the expression level of endogenous RAS was confirmed by Western blotting. The results are shown in the right part of […].

In assay [2] the test system is SMC6-GFP. Description: Degradation of SMC6-GFP, GFP fluorescence quantified by flow cytometry (FACS). The conditions noted are these: 1 μM 5-Ph-IAA, 4 hours; HCT116 cells expressing SMC6-GFP, OsTIR1 (F74G) and GFP nanobody adapter. The procedure: (§1) As an mAID-single-chain antibody (nanobody) gene (also referred to as an adapter), a wild-type (WT adapter) and a ubiquitination-resistant mutant (KR adapter) in which all lysine residues (K) in the amino acid sequence encoded by the mAID-single-chain antibody (nanobody) gene were substituted with arginine residues (R) were prepared.
(§2) A co-expression vector in which the OsTIR1 (F74G) gene and the WT adapter or the KR adapter were connected by a self-cleaving sequence P2A gene was prepared (see FIG. 2).
(§3) In the chromosome of HCT116 cells, DNA encoding GFP was introduced into the downstream of DNA encoding each of the nuclear protein SMC6 and the cytoplasmic protein DHC1 by transposon, and cells expressing SMC6-GFP and cells expressing DHC1-GFP were prepared.
(§4) A co-expression vector containing an adapter (WT adapter; KR adapter) that contains a gene encoding a GFP nanobody (GFP nanobody WT gene sequence (SEQ ID NO: 9); GFP nanobody KR gene sequence (SEQ ID NO: 10)), together with the OsTIR1 (F74G) gene, was introduced into the cells expressing each SMC6-GFP and DHC1-GFP. […]
(§5) These cells were treated with 1 μM 5-Ph-IAA for 4 hours, and the GFP fluorescence in the cells was quantified using flow cytometry. […]
as §5
A general note: Flow cytometry measures light scatter and fluorescence of single cells or particles in a stream.

For assay [3], the system named is endogenous p53. The assay is described as follows: Expression level of endogenous p53 by Western blotting. The conditions noted are these: 1 μM 5-Ph-IAA, 6 hours; cells expressing OsTIR1 (F74G) and p53 nanobody KR adapter. How it is done: Furthermore, the same experiment was performed using an adapter (WT adapter; KR adapter) containing a gene encoding a p53 nanobody (p53 nanobody WT gene sequence (SEQ ID NO: 11); p53 nanobody KR gene sequence (SEQ ID NO: 12)) (see the left part of FIG. 6). The cells were treated with 1 μM 5-Ph-IAA for 6 hours, and the expression level of endogenous p53 was confirmed by Western blotting. The results are shown in the right part of FIG. 6.
Furthermore, the same experiment was performed using an adapter (WT adapter; KR adapter; hybrid adapter) containing a gene encoding a p53 nanobody (p53 nanobody WT gene sequence (SEQ ID NO: 11); p53 nanobody KR gene sequence (SEQ ID NO: 12)) (see the left part of FIG. 10). The cells were treated with 1 μM 5-Ph-IAA for 6 hours, and the expression level of endogenous p53 was confirmed by Western blotting. The results are shown in the right part of […].
(Immunoblotting shows a protein as a band on a membrane.)

In assay [4] the test system is DHC1-GFP. The assay is described as follows: Degradation of DHC1-GFP, GFP fluorescence quantified by flow cytometry (FACS). The conditions noted are these: 1 μM 5-Ph-IAA, 4 hours; HCT116 cells expressing DHC1-GFP, OsTIR1 (F74G) and GFP nanobody adapter. How it is done:
as §1, §2, §3, §4, §5, §5

Assay [5] relates to RAD21-GFP. Description: Degradation of RAD21-GFP, GFP fluorescence quantified by flow cytometry (FACS). The conditions noted are these: 1 μM 5-Ph-IAA, 4 hours; HCT116 cells expressing RAD21-GFP, OsTIR1 (F74G) and GFP nanobody adapter. How it is done: As the mAID-single-chain antibody (nanobody) gene, in addition to the WT adapter and the KR adapter, a hybrid adapter in which all lysine residues (K) in the amino acid sequence encoded by the mAID gene were substituted with arginine residues (R) was prepared. As in Example 1, a co-expression vector in which the OsTIR1 (F74G) gene and the WT adapter, the KR adapter, or the hybrid adapter were connected by a self-cleaving sequence P2A gene was prepared (see FIG. 7).
In the chromosome of HCT116 cells, DNA encoding GFP was added to the downstream of DNA encoding each of the nuclear protein SMC6, the nuclear protein RAD21, and the cytoplasmic protein DHC1 by genome editing, and cells expressing SMC6-GFP and cells expressing DHC1-GFP were prepared (see FIG. 8).
A co-expression vector containing an adapter (WT adapter; KR adapter; hybrid adapter) that contains a gene encoding a GFP nanobody (GFP nanobody WT (SEQ ID NO: 9); GFP nanobody KR (SEQ ID NO: 10)), together with the OsTIR1 (F74G) gene, was introduced into the cells expressing each SMC6-GFP, RAD21-GFP, and DHC1-GFP by transposon. As a control, a plasmid in which only OsTIR1 (F74G) and mAID were expressed was introduced (see FIG. 8).
as §5

Turning to `O=C(O)Cc1c[nH]c2ccc(-c3ccccc3)cc12` [Formula 5-Ph-IAA, 5-Ph-IAA], the “5-Ph-IAA-dependent degradation of endogenous RAS (Western blotting)” value in assay [1] is “could be efficiently degraded”. For the same molecule, in assay [2], the “5-Ph-IAA-dependent degradation of target protein SMC6-GFP (GFP fluorescence)” value is reported as “could be degraded”. Moreover, the “5-Ph-IAA-dependent degradation of endogenous p53 (Western blotting)” value in assay [3] is “could be degraded”. Besides, in assay [4], the “5-Ph-IAA-dependent degradation of target protein DHC1-GFP (GFP fluorescence)” value is “could be degraded”. For the same molecule, in assay [5], the “5-Ph-IAA-dependent degradation of target protein RAD21-GFP (GFP fluorescence)” value is on record as “could be degraded”.
